According to patent publication US9932338B2, “Compounds having muscarinic receptor antagonist and BETA2 adrenergic receptor agonist activity” (CHIESI FARMACEUTICI S.P.A., priority 2015, dated 2018):
Like-named read-outs stand apart in the source and are kept apart here.

Assays:
[1] = target: T1, Human M3 receptor (Homo sapiens, UniProt P20309); test: M3 receptor radioligand binding assay; details: human M3 receptor membranes, [N-methyl-3H] scopolamine methyl chloride, Ki from IC50 by Cheng and Prusoff
T1 construct: purchased Perkin Elmer
T1 sequence (P20309 whole entry): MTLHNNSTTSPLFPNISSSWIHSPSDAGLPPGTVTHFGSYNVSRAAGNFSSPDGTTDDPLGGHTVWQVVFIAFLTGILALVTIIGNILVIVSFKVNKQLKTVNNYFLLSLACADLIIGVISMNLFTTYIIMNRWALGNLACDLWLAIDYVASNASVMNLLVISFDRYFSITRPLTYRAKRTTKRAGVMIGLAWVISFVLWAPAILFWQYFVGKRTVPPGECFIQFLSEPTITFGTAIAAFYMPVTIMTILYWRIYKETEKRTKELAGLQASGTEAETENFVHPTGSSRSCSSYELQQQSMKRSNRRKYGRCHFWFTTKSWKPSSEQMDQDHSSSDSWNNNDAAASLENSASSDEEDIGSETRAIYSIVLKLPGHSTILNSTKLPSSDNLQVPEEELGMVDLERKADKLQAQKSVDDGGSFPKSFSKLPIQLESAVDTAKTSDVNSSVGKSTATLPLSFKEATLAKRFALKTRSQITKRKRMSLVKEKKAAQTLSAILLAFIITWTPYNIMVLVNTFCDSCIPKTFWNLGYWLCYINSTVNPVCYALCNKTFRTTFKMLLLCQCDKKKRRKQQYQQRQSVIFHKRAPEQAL
Method: Example. M3 Receptor Radioligand Binding Assay
The assay was carried out in 96-well polypropylene plates in a volume of 250 ul. […] The final assay concentration of DMSO was 0.5% (v/v). The plates were sealed and incubated for 2 hours at room temperature on an orbital shaker (slow speed). Membranes were harvested onto 96-well unifilter GF/C filter plates pre-treated with 0.5% polyethyleneimine (v/v), using a filter manifold, washed four times with 200 μl of assay buffer. The plates were dried before addition of 50 μl of microscint-0, sealed then read in a Trilux Microbeta scintillation counter. IC50 values are determined from competition curves using a non-linear curve fitting program. Ki values were calculated from IC50 values by the Cheng and Prusoff equation.

[2] = target: T2, Human β2 adrenoceptor (Homo sapiens, UniProt P07550); test: β2 adrenoceptor radioligand binding assay; details: human β2 adrenoceptor membranes, 125-I cyanopindolol, Ki from IC50 by Cheng and Prusoff
T2 construct: purchased Perkin Elmer
T2 sequence (P07550 whole entry): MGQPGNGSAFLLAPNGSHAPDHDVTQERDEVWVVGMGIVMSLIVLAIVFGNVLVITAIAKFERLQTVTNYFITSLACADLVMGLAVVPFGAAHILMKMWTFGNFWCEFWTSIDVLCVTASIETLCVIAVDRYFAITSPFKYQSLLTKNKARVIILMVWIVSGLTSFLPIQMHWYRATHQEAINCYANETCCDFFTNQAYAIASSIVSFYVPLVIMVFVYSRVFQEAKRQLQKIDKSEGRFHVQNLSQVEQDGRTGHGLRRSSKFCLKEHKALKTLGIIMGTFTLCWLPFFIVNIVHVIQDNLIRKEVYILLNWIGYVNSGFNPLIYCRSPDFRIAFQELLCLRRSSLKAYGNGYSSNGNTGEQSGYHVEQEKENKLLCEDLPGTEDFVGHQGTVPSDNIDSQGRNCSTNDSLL
Method: Example. β2 Adrenoceptor Radioligand Binding Assay
Human β2 adrenoceptor membranes (7.5 ug/well) from Perkin Elmer were incubated with 0.3 nM 125-I Cyanopindolol with or without test compounds, or a saturating concentration of s-propranolol (2 μM) for the determination of non-specific binding. The assay was carried out in 96-well polypropylene plates in a volume of 200 ul. The assay buffer used was 25 mM HEPES, 0.5% BSA (w/v), 1 mM EDTA, 0.02% ascorbic acid (v/v), (pH 7.4). The final assay concentration of DMSO was 0.5% (v/v). The plates were sealed and incubated for 1 hour at room temperature on an orbital shaker (slow speed). Membranes were harvested onto 96-well unifilter GF/C filter plates pre-treated with 0.5% polyethyleneimine (v/v), using a filter manifold, washed six times with 200 μl of wash buffer containing 10 mM HEPES and 500 mM NaCl. The plates were dried before addition of 50 μl of microscint-0, sealed then read in a Trilux Microbeta scintillation counter. IC50 values are determined from competition curves using a non-linear curve fitting program. Ki values were calculated from IC50 values by the Cheng and Prusoff equation.

[3] = read-out: M3 binding affinity (Ki class)
[4] = read-out: B2 binding affinity (Ki class)

O=C(NCCCCNC[C@H](O)c1ccc(O)c2[nH]c(=O)ccc12)c1cccc(CNC2(C(=O)O[C@H]3CN4CCC3CC4)CCc3ccccc32)c1 (stereo partly drawn) [Compound 1, (R)-quinuclidin-3-yl 1-((3-((4-(((R)-2-hydroxy-2-(8-hydroxy-2-oxo-1,2-dihydroquinolin-5-yl)ethyl)amino)butyl)carbamoyl)benzyl)amino)-2,3-dihydro-1H-indene-1-carboxylate]
Ki [1, 3]: < 1 nM
Ki [2, 4]: < 1 nM

O=C(NC1(C(=O)O[C@H]2CN3CCC2CC3)CCc2ccccc21)c1cccc(COCCCCNC[C@H](O)c2ccc(O)c3[nH]c(=O)ccc23)c1 (stereo partly drawn) [Compound 12, (R)-quinuclidin-3-yl 1-(3-((4-(((R)-2-hydroxy-2-(8-hydroxy-2-oxo-1,2-dihydroquinolin-5-yl)ethyl)amino)butoxy)methyl)benzamido)-2,3-dihydro-1H-indene-1-carboxylate]
Ki [1, 3]: 1 to 10 nM
Ki [2, 4]: > 10 nM

O=C(NC1(C(=O)O[C@H]2CN3CCC2CC3)CCc2ccccc21)c1cccc(OCCCCCNC[C@H](O)c2ccc(O)c3[nH]c(=O)ccc23)c1 (stereo partly drawn) [Compound 2, (R)-quinuclidin-3-yl 1-(3-((5-(((R)-2-hydroxy-2-(8-hydroxy-2-oxo-1,2-dihydroquinolin-5-yl)ethyl)amino)pentyl)oxy)benzamido)-2,3-dihydro-1H-indene-1-carboxylate]
Ki ([1]; M3 binding affinity (Ki class)): < 1 nM
Ki ([2]; B2 binding affinity (Ki class)): < 1 nM

O=C(O[C@H]1CN2CCC1CC2)C1(NCc2cccc(OCc3cccc(OCCCCNC[C@H](O)c4ccc(O)c5[nH]c(=O)ccc45)c3)c2)CCc2ccccc21 (stereo partly drawn) [Compound 21, (R)-quinuclidin-3-yl 1-((3-((3-(4-(((R)-2-hydroxy-2-(8-hydroxy-2-oxo-1,2-dihydroquinolin-5-yl)ethyl)amino)butoxy)benzyl)oxy)benzyl)amino)-2,3-dihydro-1H-indene-1-carboxylate]
Ki [1, 3]: < 1 nM
Ki [2, 4]: < 1 nM

O=C(NCCCCNC[C@H](O)c1ccc(O)c2[nH]c(=O)ccc12)c1ccc(CNC2(C(=O)O[C@@H]3CCN(Cc4ccccc4)C3)CCc3ccccc32)s1 (single isomer, unassigned; stereoisomer 1) [Compound 26]
Ki [1, 3]: > 10 nM
Ki [2, 4]: > 10 nM

O=C(O[C@H]1CN2CCC1CC2)C1(NCc2cccc(OCc3ccc(CNC[C@H](O)c4ccc(O)c5[nH]c(=O)ccc45)cc3)c2)CCc2ccccc21 (stereo partly drawn) [Compound 20, (R)-quinuclidin-3-yl 1-((3-((4-((((R)-2-hydroxy-2-(8-hydroxy-2-oxo-1,2-dihydroquinolin-5-yl)ethyl)amino)methyl)benzyl)oxy)benzyl)amino)-2,3-dihydro-1H-indene-1-carboxylate]
Ki [1, 3]: 1 to 10 nM
Ki [2, 4]: < 1 nM

O=C(O[C@H]1CN2CCC1CC2)C1(NCc2cccc(OCCCCCNC[C@H](O)c3ccc(O)c4[nH]c(=O)ccc34)c2)CCc2ccccc21 (stereo partly drawn) [Compound 3, (R)-quinuclidin-3-yl 1-((3-((5-(((R)-2-hydroxy-2-(8-hydroxy-2-oxo-1,2-dihydroquinolin-5-yl)ethyl)amino)pentyl)oxy)benzyl)amino)-2,3-dihydro-1H-indene-1-carboxylate]
Ki [1, 3]: < 1 nM
Ki [2, 4]: < 1 nM

O=C(NCCCCNC[C@H](O)c1ccc(O)c2[nH]c(=O)ccc12)c1ccc(CNC2(C(=O)OC3CCN(Cc4ccccc4)CC3)CCc3ccccc32)s1 (single isomer, unassigned; stereoisomer 1) [Compound 24]
Ki [1, 3]: < 1 nM
Ki [2, 4]: > 10 nM

O=C(NCCCCNC[C@H](O)c1ccc(O)c2[nH]c(=O)ccc12)c1ccc(CNC2(C(=O)O[C@H]3CN4CCC3CC4)Cc3ccccc3C2)s1 [Compound 14, (R)-quinuclidin-3-yl 2-(((5-((4-(((R)-2-hydroxy-2-(8-hydroxy-2-oxo-1,2-dihydroquinolin-5-yl)ethyl)amino)butyl)carbamoyl)thiophen-2-yl)methyl)amino)-2,3-dihydro-1H-indene-2-carboxylate]
Ki [1, 3]: < 1 nM
Ki [2, 4]: 1 to 10 nM
